Measured values as given in publication PMC10042540, “Targeting oncogenic KRasG13C with nucleotide-based covalent inhibitors” (eLife, 2023).

Assays:
Assay in all cases: Electroporation into HeLa cells, western blot quantification
Type in all cases: cell-based, human
pAktS473 = details: for pAkt mean fold change: mean of cell lysates
Method: (§1) HeLa cells were obtained from the American Type Culture Collection (ATCC) and were cultured in DMEM medium (Gibco) supplemented with 10% fetal bovine serum (FBS) (PAN-Biotech) and 1% penicillin/streptomycin (Gibco). Cells were cultured in a humidified incubator at 37 °C in the presence of 5% CO2. The identity of the cells was validated by STR profiling and the cells were tested negative for mycoplasma contamination.
(§2) Electroporation of full-length KRas constructs (KRasWT, KRasG13C, KRasG13C-edaGDP, KRasG13C:acetyledaGDP and KRasG13C-edaGppCp) was performed based on the protocol described by [Alex et al., 2019] using the Neon Transfection System Kit (Thermo Fisher). For electroporation, 3 million cells per experiment were harvested by trypsinization, washed with PBS, and resuspended in 85 µL of the electroporation buffer R (Thermo Fisher). Increasing amounts of recombinant protein samples for each construct (0, 50, 100, 200 and 300 µg) were diluted 1:1 in buffer R followed by the addition of 30 µL of this protein master mix to the cell suspension. This cellular slurry was loaded into a […] Neon Pipette Tip (Thermo Fisher) and electroporated with 2x35 ms pulses at 1000 V. After electroporation, the cells were washed twice with PBS (15 mL) to remove non-internalized extracellular protein and the cell pellet was resuspended in 2 mL complete growth media. Cells were transferred into six-well tissue culture plates (Sarstedt) and incubated for 24 hr at 37 °C and 5% CO2 in a humidified incubator for recovery before being processed for western blotting analysis.
(§3) After recovery of the electroporation, cells were washed twice with ice-cold PBS and lysed in 100 µL of phosphatase and protease inhibitor containing RIPA buffer (Cell Signaling Technology). Cells were incubated on ice for 30 min and then harvested by scraping followed by centrifugation at 14,000 rpm for 10 min at 4 °C. Protein concentrations were determined using the Pierce BCA protein assay (Thermo) following the manufacturer’s recommended procedure. Equal amounts of protein (10 µg) were analyzed by SDS-PAGE and transferred to Immobilon-FL PVDF membranes (Merck Millipore) using Pierce 1-step transfer buffer (Thermo) and the Pierce Power Blotter (Thermo). Membranes were washed with ddH2O for 5 min, blocked with OdysseyBlocking Buffer TBS (Li-Cor) for 1 hr at room temperature and then incubated with primary antibodies diluted in OdysseyBlocking Buffer TBS overnight at 4 °C with gentle agitation. KRas (Sigma Aldrich, SAB1404011-100UG), pcRafS338 (CST, 9427), tAkt1 (CST, 2938), pAktS473 (CST, 4060), tErk (CST, 4696), pErkT202/Y204 (CST, 4370), pS6S235/236 (CST, 4858), and β-actin (CST, 4970/Sigma-Aldrich, A5441) antibodies were used to detect the individual proteins. After primary antibody incubation, membranes were washed three times with TBS-T (50 mM Tris, 150 mM NaCl, 0.05% Tween 20, pH 7.4) for 5 min before being incubated with secondary antibodies (anti-mouse IgG (H+L) (DyLight 680 Conjugate) (CST, 5470) / anti-rabbit IgG (H+L) (DyLight 800 4 X PEG Conjugate) (CST, 5151)) diluted in OdysseyBlocking Buffer TBS for 1 hr at room temperature with gentle agitation. After secondary antibody incubation, the membranes were washed three times for 5 min with TBS-T and then scanned using an OdysseyCLx imaging system (Li-Cor). Quantification of protein levels from western blots was performed using Empiria Studio (Li-Cor) (Figure 3B, C, Figure 3—figure supplements 6–9).

pErkT202/Y204 = details: for pErk mean fold change: mean of cell lysates
Method: as §1, §2, §3

pS6S235/236 = details: for pS6 mean fold change: mean of cell lysates
Method: as §1, §2, §3

pcRafS338 = details: for pcRaf mean fold change: mean of cell lysates
Method: as §1, §2, §3

tAkt1 = details: for tAkt mean fold change: mean of cell lysates
Method: as §1, §2, §3

For “KRasG13C-edaGDP: KRasG13C covalently locked with edaGDP at Cys13”, the pAkt fold change (pAktS473; 50 µg, Cell lysate 1) was 0.89, the pAkt fold change (pAktS473; 50 µg, Cell lysate 2) was 1.23 and the “pAkt mean fold change” value (pAktS473; 50 µg) was 0.54. It also gave a pAkt fold change (pAktS473; 100 µg, Cell lysate 1) of 0.28, a pAkt fold change (pAktS473; 100 µg, Cell lysate 2) of 0.69 and a pAkt fold change (pAktS473; 100 µg, Cell lysate 3) of 1.01. For the same substance, the “pAkt mean fold change” value (pAktS473; 100 µg) was 0.66, the pAkt fold change (pAktS473; 200 µg, Cell lysate 1) was 0.45 and the pAkt fold change (pAktS473; 200 µg, Cell lysate 2) was 0.95. The pAkt fold change (pAktS473; 200 µg, Cell lysate 3) was 0.56, the “pAkt mean fold change” value (pAktS473; 200 µg) was 0.65 and the pAkt fold change (pAktS473; 300 µg, Cell lysate 1) was 0.63. The pAkt fold change (pAktS473; 300 µg, Cell lysate 2) was 0.97, the pAkt fold change (pAktS473; 300 µg, Cell lysate 3) was 1.17 and the “pAkt mean fold change” value (pAktS473; 300 µg) was 0.92. For the same substance, the pErk fold change (pErkT202/Y204; 50 µg, Cell lysate 1) was 0.82, the pErk fold change (pErkT202/Y204; 50 µg, Cell lysate 2) was 0.70 and the pErk fold change (pErkT202/Y204; 50 µg, Cell lysate 3) was 0.80. For the same substance, the “pErk mean fold change” value (pErkT202/Y204; 50 µg) was 0.77, the pErk fold change (pErkT202/Y204; 100 µg, Cell lysate 1) was 1.10 and the pErk fold change (pErkT202/Y204; 100 µg, Cell lysate 2) was 0.77. The pErk fold change (pErkT202/Y204; 100 µg, Cell lysate 3) was 0.86, the “pErk mean fold change” value (pErkT202/Y204; 100 µg) was 0.91 and the pErk fold change (pErkT202/Y204; 200 µg, Cell lysate 1) was 2.08. For the same substance, the pErk fold change (pErkT202/Y204; 200 µg, Cell lysate 2) was 0.84, the pErk fold change (pErkT202/Y204; 200 µg, Cell lysate 3) was 1.10 and the “pErk mean fold change” value (pErkT202/Y204; 200 µg) was 1.34. The pErk fold change (pErkT202/Y204; 300 µg, Cell lysate 1) was 2.38, the pErk fold change (pErkT202/Y204; 300 µg, Cell lysate 2) was 0.86 and the pErk fold change (pErkT202/Y204; 300 µg, Cell lysate 3) was 1.58. The “pErk mean fold change” value (pErkT202/Y204; 300 µg) was 1.61, the pS6 fold change (pS6S235/236; 50 µg, Cell lysate 1) was 0.80 and the pS6 fold change (pS6S235/236; 50 µg, Cell lysate 2) was 1.31. The pS6 fold change (pS6S235/236; 50 µg, Cell lysate 3) was 0.76, the “pS6 mean fold change” value (pS6S235/236; 50 µg) was 0.96 and the pS6 fold change (pS6S235/236; 100 µg, Cell lysate 1) was 0.91. The pS6 fold change (pS6S235/236; 100 µg, Cell lysate 2) was 1.13, the pS6 fold change (pS6S235/236; 100 µg, Cell lysate 3) was 0.75 and the “pS6 mean fold change” value (pS6S235/236; 100 µg) was 0.93. For the same substance, the pS6 fold change (pS6S235/236; 200 µg, Cell lysate 1) was 1.23, the pS6 fold change (pS6S235/236; 200 µg, Cell lysate 2) was 1.03 and the pS6 fold change (pS6S235/236; 200 µg, Cell lysate 3) was 0.88. The “pS6 mean fold change” value (pS6S235/236; 200 µg) was 1.05, the pS6 fold change (pS6S235/236; 300 µg, Cell lysate 1) was 0.98 and the pS6 fold change (pS6S235/236; 300 µg, Cell lysate 2) was 0.98. For the same substance, the pS6 fold change (pS6S235/236; 300 µg, Cell lysate 3) was 0.76, the “pS6 mean fold change” value (pS6S235/236; 300 µg) was 0.91 and the pcRaf fold change (pcRafS338; 50 µg, Cell lysate 1) was 0.75. For the same substance, the pcRaf fold change (pcRafS338; 50 µg, Cell lysate 2) was 1.33, the pcRaf fold change (pcRafS338; 50 µg, Cell lysate 3) was 0.84 and the “pcRaf mean fold change” value (pcRafS338; 50 µg) was 0.97. For the same substance, the pcRaf fold change (pcRafS338; 100 µg, Cell lysate 1) was 0.89, the pcRaf fold change (pcRafS338; 100 µg, Cell lysate 2) was 0.78 and the pcRaf fold change (pcRafS338; 100 µg, Cell lysate 3) was 1.40. For the same substance, the “pcRaf mean fold change” value (pcRafS338; 100 µg) was 1.02, the pcRaf fold change (pcRafS338; 200 µg, Cell lysate 1) was 0.74 and the pcRaf fold change (pcRafS338; 200 µg, Cell lysate 2) was 0.88. For the same substance, the pcRaf fold change (pcRafS338; 200 µg, Cell lysate 3) was 1.21, the “pcRaf mean fold change” value (pcRafS338; 200 µg) was 0.94 and the pcRaf fold change (pcRafS338; 300 µg, Cell lysate 1) was 0.57. For the same substance, the pcRaf fold change (pcRafS338; 300 µg, Cell lysate 2) was 0.97, the pcRaf fold change (pcRafS338; 300 µg, Cell lysate 3) was 1.13 and the “pcRaf mean fold change” value (pcRafS338; 300 µg) was 0.89. It also gave a tAkt fold change (tAkt1; 50 µg, Cell lysate 1) of 0.65, a tAkt fold change (tAkt1; 50 µg, Cell lysate 2) of 1.23 and a tAkt fold change (tAkt1; 50 µg, Cell lysate 3) of 1.06. The “tAkt mean fold change” value (tAkt1; 50 µg) was 0.98, the tAkt fold change (tAkt1; 100 µg, Cell lysate 1) was 0.92 and the tAkt fold change (tAkt1; 100 µg, Cell lysate 2) was 1.65. The tAkt fold change (tAkt1; 100 µg, Cell lysate 3) was 0.97, the “tAkt mean fold change” value (tAkt1; 100 µg) was 1.18 and the tAkt fold change (tAkt1; 200 µg, Cell lysate 1) was 1.06. The tAkt fold change (tAkt1; 200 µg, Cell lysate 2) was 1.22, the tAkt fold change (tAkt1; 200 µg, Cell lysate 3) was 0.78 and the “tAkt mean fold change” value (tAkt1; 200 µg) was 1.02. The tAkt fold change (tAkt1; 300 µg, Cell lysate 1) was 0.92, the tAkt fold change (tAkt1; 300 µg, Cell lysate 2) was 0.97 and the tAkt fold change (tAkt1; 300 µg, Cell lysate 3) was 0.68. For the same substance, the “tAkt mean fold change” value (tAkt1; 300 µg) was 0.86.
